Experimental data as given in patent US10577315B2, “Compositions and methods for treatment of prostate carcinoma” (Pellficure Pharmaceuticals, Inc., priority 2014, dated 2020).

System: PTEN-P2/GFP prostate cancer cells
Assay: Effect of 1,4-naphthoquinone analogs on PTEN-P2/GFP cell proliferation (WST-1 cell viability, 24 h)
Format: cell-based
Conditions: Mus musculus, WST-1, medium with 10% FBS and DHT, read-out: PTEN-P2/GFP cell proliferation, percent of control
Procedure: Cells are grown in phenol red-free DMEM medium containing 10% FBS, 2 mM L-glutamine, 100 U/ml penicillin/100 μg/ml streptomycin, insulin-selenium-transferrin (5 μg/ml insulin), and DHT 10^−8M final. Androgen withdrawal is achieved by not adding DHT to the medium. Cells are maintained in a humidified incubator at 37° C. and 5% CO2. G418 (100 μg/ml) is added to maintain stable expression of H2B-GFP.
100 microliters of PTEN-P2/GFP prostate cancer cells were plated at a density of 8000 cells/well in 96-well plates (triplicates) in growing medium containing 10% Fetal Bovine Serum and DHT. The next day, increasing concentrations of a 1,4-naphthoquinone analog (diluted from 10 mM DMSO stock solutions) were added. DMSO used as solvent for all analogs, was kept constant through the 96-well plates. The control consisted of DMSO alone. The cells were subsequently incubated for 24 hours at 37° C. and 5% CO2 in normal cell growth conditions. Cell viability was assessed by adding 9 μL/well of WST-1 reagent (Clontech), which measured mitochondrial activity of live cells. […] The incubation time was 3 hours at 37° C. Optical density of the cell samples was measured at 460 nm, by using plate reader Spectra Max 250 (Molecular Devices). The drug was determined to be cytotoxic when OD values show an inverse correlation with analog concentrations. The results are shown in TABLES 3.1-3.4, FIGS. 2A-2E, and FIGS. 3A-3D.

In the case of `O=C1C(Oc2ccccc2)=C(Oc2ccccc2)C(=O)c2ccccc21` [Analog F21, 2,3-diphenoxy-1,4-naphthoquinone], the activity at 2 µM is reported as 102%, the activity at 3 µM is reported as 92.9% and the activity at 4 µM is reported as 92.9%. The activity at 5 µM was 92.9%, the activity at 6 µM was 61.8% and the activity at 7 µM was 54.4%. For the same compound, the activity at 10 µM was 26.1%, the activity at 15 µM was 16.2% and the activity at 25 µM was 16.3%.
With `O=C1C=C(Oc2ccc(Cl)cc2)C(=O)c2ccccc21` [Analog F14, 2-(4-chlorophenoxy)naphthalene-1,4-dione] the activity at 1.2 µM was 100%, the activity at 2.5 µM was 92.3% and the activity at 5 µM was 86.2%. The activity at 7.5 µM was 71%, the activity at 10 µM was 19.2% and the activity at 15 µM was 1.27%. It also gave an activity at 20 µM of 2.3%.
In the case of `O=C(NCCCl)Oc1ccc(OC2=C(Oc3ccc(OC(=O)NCCCl)cc3)C(=O)c3ccccc3C2=O)cc1` [Analog F34, 2,3-bis(4-((2-chloroethyl)carbamoyloxy)phenoxy)-1,4-naphthoquinone], the activity at 2 µM is reported as 74.5%, the activity at 3 µM is reported as 49.6% and the activity at 4 µM is reported as 35.8%. It also gave an activity at 5 µM of 26%, an activity at 6 µM of 19.3% and an activity at 7 µM of 17.2%. It also gave an activity at 10 µM of 14.2%, an activity at 15 µM of 14.2% and an activity at 25 µM of 14.5%.
`COc1ccc(OC2=CC(=O)c3ccccc3C2=O)c(Cl)c1` [Analog F16, 2-(2-chloro-4-methoxyphenoxy)naphthalene-1,4-dione] was tested, and the activity at 1.2 µM was 92.8%, the activity at 2.5 µM was 97% and the activity at 5 µM was 82.5%. The activity at 7.5 µM was 12%, the activity at 10 µM was 0.73% and the activity at 15 µM was 1.43%. For the same compound, the activity at 20 µM was 2.3%.
For `CCOC1=CC(=O)c2ccccc2C1=O` [Analog F53, 2-ethoxy-1,4-naphthoquinone], the activity at 1 µM was 94%, the activity at 2 µM was 91.8% and the activity at 3 µM was 89.9%. It also gave an activity at 4 µM of 93.2%, an activity at 5 µM of 93.7% and an activity at 6 µM of 92.5%. It also gave an activity at 7 µM of 93.4%, an activity at 10 µM of 94.1% and an activity at 25 µM of 28.6%. The activity at 50 µM was 12.9%.
Work on `CC(=O)NC1=C(Oc2ccc(NC(C)=O)cc2)C(=O)c2ccccc2C1=O` [Analog F40, N-(4-((3-acetamido-1,4-dioxo-1,4-dihydronaphthalen-2-yl)oxy)phenyl)acetamide] yielded an activity at 2 µM of 97%, an activity at 3 µM of 98.8% and an activity at 4 µM of 89.2%. For the same compound, the activity at 5 µM was 85.2%, the activity at 6 µM was 73.2% and the activity at 7 µM was 67.3%. The activity at 10 µM was 56.2%, the activity at 15 µM was 46.1% and the activity at 25 µM was 44.6%.
`COc1cccc2c1C(=O)C=C(C)C2=O` [Analog F47, 5-methoxy-2-methyl-1,4-naphthoquinone] gave an activity at 1 µM of 105%, an activity at 2 µM of 104% and an activity at 3 µM of 104%. The activity at 4 µM was 107%, the activity at 5 µM was 105% and the activity at 6 µM was 105%. For the same compound, the activity at 7 µM was 106%, the activity at 10 µM was 109% and the activity at 25 µM was 78.8%. For the same compound, the activity at 50 µM was 11.1%.
`Cc1cccc(OC2=CC(=O)c3ccccc3C2=O)c1` [Analog F08, 2-(3-methylphenoxy)-1,4-naphthoquinone] showed an activity at 2 µM of 102%, an activity at 3 µM of 101% and an activity at 4 µM of 99.4%. The activity at 5 µM was 92.2%, the activity at 6 µM was 83.9% and the activity at 7 µM was 68.8%. For the same compound, the activity at 10 µM was 30.8%, the activity at 15 µM was 12.8% and the activity at 25 µM was 9.66%.
With `O=C1C(Br)=C(Oc2ccc(OC3=C(Br)C(=O)c4ccccc4C3=O)cc2)C(=O)c2ccccc21` [Analog F57, 3,3′-(1,4-phenylenebis(oxy))bis(2-bromonaphthalene-1,4-dione)] the activity at 2 µM was 98.2%, the activity at 3 µM was 98% and the activity at 4 µM was 98.6%. For the same compound, the activity at 5 µM was 98.9%, the activity at 6 µM was 95.7% and the activity at 7 µM was 86.7%. The activity at 10 µM was 61.4%, the activity at 15 µM was 42.8% and the activity at 25 µM was 17.4%.
For `O=C1C=C(Oc2ccc(Cl)cc2Cc2ccccc2)C(=O)c2ccccc21` [Analog F13, 2-(2-benzyl-4-chlorophenoxy)naphthalene-1,4-dione], the activity at 1.2 µM was 129%, the activity at 2.5 µM was 119% and the activity at 5 µM was 60.5%. The activity at 7.5 µM was 17.5%, the activity at 10 µM was 1.69% and the activity at 15 µM was 2.19%. The activity at 20 µM was 2.53%.
Compound `CC(=O)NC1=C(Oc2ccc(OC3=C(NC(C)=O)C(=O)c4ccccc4C3=O)cc2)C(=O)c2ccccc2C1=O` [Analog F44, N,N′-((1,4-phenylenebis(oxy))bis(1,4-dioxo-1,4-dihydronaphthalene-3,2-diyl))diacetamide] has an activity at 2 µM of 106%, an activity at 3 µM of 102% and an activity at 4 µM of 69%. It also gave an activity at 5 µM of 58.6%, an activity at 6 µM of 50.5% and an activity at 7 µM of 45.4%. For the same compound, the activity at 10 µM was 38.7%, the activity at 15 µM was 20.9% and the activity at 25 µM was 17.1%.
Compound `COC(=O)CSC1=C(C)C(=O)c2cccc(O)c2C1=O` [Analog F46, Methyl 2-((8-hydroxy-3-methyl-1,4-dioxo-1,4-dihydronaphthalen-2-yl)thio)acetate] has an activity at 1 µM of 95.4%, an activity at 2 µM of 90.6% and an activity at 3 µM of 84.9%. It also gave an activity at 4 µM of 75%, an activity at 5 µM of 66.1% and an activity at 6 µM of 60.6%. It also gave an activity at 7 µM of 54.7%, an activity at 10 µM of 33% and an activity at 25 µM of 13%. The activity at 50 µM was 13.6%.
In the case of `O=C1C(Br)=C(Oc2ccccc2)C(=O)c2ccccc21` [Analog F18, 2-bromo-3-phenoxy-1,4-naphthoquinone], the activity at 2 µM is reported as 96.6%, the activity at 3 µM is reported as 92.5% and the activity at 4 µM is reported as 85.5%. The activity at 5 µM was 69.8%, the activity at 6 µM was 53.5% and the activity at 7 µM was 45%. The activity at 10 µM was 20.3%, the activity at 15 µM was 11.1% and the activity at 25 µM was 9.64%.
`CC(=O)NC1=C(Oc2ccccc2)C(=O)c2ccccc2C1=O` [Analog F38, N-(1,4-dioxo-3-phenoxy-1,4-dihydronaphthalen-2-yl)acetamide] showed an activity at 2 µM of 95.8%, an activity at 3 µM of 87% and an activity at 4 µM of 71.7%. For the same compound, the activity at 5 µM was 54%, the activity at 6 µM was 41% and the activity at 7 µM was 30.7%. It also gave an activity at 10 µM of 16.6%, an activity at 15 µM of 14.7% and an activity at 25 µM of 14.3%.
`O=C1C(Oc2c(F)cc(F)cc2F)=C(Oc2c(F)cc(F)cc2F)C(=O)c2ccccc21` [Analog F22, 2,3-bis(2,4,6-trifluorophenoxy)naphthalene-1,4-dione] gave an activity at 1.2 µM of 91.2%, an activity at 2.5 µM of 103% and an activity at 5 µM of 105%. The activity at 7.5 µM was 107%, the activity at 10 µM was 104% and the activity at 15 µM was 105%. The activity at 20 µM was 101%.
`Cc1cc(OC2=CC(=O)c3ccccc3C2=O)ccc1Cl` [Analog F15, 2-(4-chloro-3-methylphenoxy)naphthalene-1,4-dione] was tested, and the activity at 1.2 µM was 95.6%, the activity at 2.5 µM was 89% and the activity at 5 µM was 97.1%. The activity at 7.5 µM was 55.5%, the activity at 10 µM was 4.3% and the activity at 15 µM was 1.67%. For the same compound, the activity at 20 µM was 2.4%.
For `COC(=O)c1ccccc1OC1=C(Br)C(=O)c2ccccc2C1=O` [Analog F19, methyl 3-bromo-1,4-naphthoquinon-2-yl-salicylate], the activity at 2 µM was 99.5%, the activity at 3 µM was 94.3% and the activity at 4 µM was 85.2%. The activity at 5 µM was 81%, the activity at 6 µM was 68.2% and the activity at 7 µM was 59.3%. The activity at 10 µM was 32.3%, the activity at 15 µM was 20.1% and the activity at 25 µM was 12.1%.
In the case of `O=C1C=C(Oc2ccc3ccccc3c2)C(=O)c2ccccc21` [Analog F09, 2-(naphthalene-2-yloxy)-1,4-naphthoquinone], the activity at 1.2 µM is reported as 117%, the activity at 2.5 µM is reported as 114% and the activity at 5 µM is reported as 106%. It also gave an activity at 7.5 µM of 70%, an activity at 10 µM of 28.7% and an activity at 15 µM of 1.97%. It also gave an activity at 20 µM of 3.09%.
